Two compounds from ChEMBL document CHEMBL4680330, “Soloxolone methyl, as a 18βH-glycyrrhetinic acid derivate, may result in endoplasmic reticulum stress to induce apoptosis in breast cancer cells” (Bioorg Med Chem, 2021) can be followed below.

Structures are written as SMILES. Some results are limits rather than exact numbers.

The subject of assay [1] is MDA-MB-231. Kind of assay: Induction of apoptosis in human MDA-MB-231 cells assessed as PARP level at 4.39 uM incubated for 24 hrs by Western blot analysis (reference value: 1). It counts as functional. For orientation: Immunoblotting shows a protein as a band on a membrane.
For assay [2], the system named is MDA-MB-231. Kind of assay: Induction of apoptosis in human MDA-MB-231 cells assessed as pro-caspase 8 level at 4.39 uM incubated for 24 hrs by Western blot analysis (reference value: 1). It counts as functional.
Assay [3] relates to MDA-MB-231. Kind of assay: Induction of apoptosis in human MDA-MB-231 cells assessed as cleaved pro-caspase 8 level at 4.39 uM incubated for 24 hrs by Western blot analysis (reference value: 1). Format: functional.
Assay [4] relates to MDA-MB-231. Kind of assay: Induction of apoptosis in human MDA-MB-231 cells assessed as cleaved PARP level at 4.39 uM incubated for 24 hrs by Western blot analysis (reference value: 1). Format: functional.
The test system of assay [5] is MDA-MB-231. Kind of assay: Induction of endoplasmic reticulum stress in human MDA-MB-231 cells assessed as IRE1-alpha expression at 4.39 uM incubated for 24 hrs by Western blot analysis (reference value: 1). It counts as functional.
In assay [6] the test system is MDA-MB-231. Kind of assay: Induction of endoplasmic reticulum stress in human MDA-MB-231 cells assessed as BIP expression at 4.39 uM incubated for 24 hrs by Western blot analysis (reference value: 1). It counts as functional.
For assay [7], the system named is MDA-MB-231. Kind of assay: Induction of apoptosis in human MDA-MB-231 cells assessed as cleaved pro-caspase 3 level at 4.39 uM incubated for 24 hrs by Western blot analysis (reference value: 1). Format: functional.
For assay [8], the system named is MDA-MB-231. Kind of assay: Induction of apoptosis in human MDA-MB-231 cells assessed as pro-caspase 3 level at 4.39 uM incubated for 24 hrs by Western blot analysis (reference value: 1). Format: functional.
Assay [9] deals with MDA-MB-231. Kind of assay: Induction of endoplasmic reticulum stress in human MDA-MB-231 cells assessed as CHOP expression at 4.39 uM incubated for 24 hrs by Western blot analysis (reference value: 1). It counts as functional.
The subject of assay [10] is Epidermoid carcinoma cell line. Kind of assay: Cytotoxicity against human Epidermoid carcinoma cell line. It counts as functional, cell-based.
A further assay relates to MCF7. Kind of assay: Cytotoxicity against human MCF7 cells assessed as reduction in cell viability incubated for 48 hrs by ATP based luminometry. Format: functional. The note with it: MCF7, 48 h.

With `COc1cccc2c1C(=O)c1c(O)c3c(c(O)c1C2=O)C[C@@](O)(C(=O)CO)C[C@@H]3O[C@H]1C[C@H](N)[C@H](O)[C@H](C)O1` [DOXORUBICIN], the “fold change (FC)” value in the assay on MDA-MB-231 [1] was found to be 0.2; in the assay on MDA-MB-231 [2], 0.3; in the assay on MDA-MB-231 [3] it was 0.6; with MDA-MB-231 [4], 23.2; in the assay with MDA-MB-231 [5], 0.1; in the assay with MDA-MB-231 [6] it was 0.1. In addition, the “fold change (FC)” value came out at 2 in the assay on MDA-MB-231 [7], 2.5 with MDA-MB-231 [8] and 0.3 with MDA-MB-231 [9].
The term IC50 denotes the concentration at which inhibition is half-maximal. As for `CC1(C)[C@@H](O)CC[C@]2(C)[C@H]3C(=O)C=C4[C@@H]5C[C@@](C)(C(=O)O)CC[C@]5(C)CC[C@@]4(C)[C@]3(C)CC[C@@H]12` [ENOXOLONE], the IC50 is ≥ 0.3 µM in assay [10] and 32.6 µM with MCF7.
